This is an account of results in patent US20220233563A1, “Methods of Treatments Based Upon Anthracycline Responsiveness” (The Board of Trustees of the Leland Stanford Junior …, priority 2019, published 2022).

The subject of experiment [1] is HCC1954 breast cancer cell line. Put plainly: Cell viability after drug treatment of HCC1954 cells with inducible shRNA knockdown of KDM4B. Type of experiment: cell-based. The note with it: KDM4B knocked down four days, then drug for three days; normalized to DMSO vehicle-only controls; FIG. 26.
Procedure: To functionally evaluate the role of KDM4B expression in anthracycline sensitivity, three inducible shRNA knockdown constructs were used to lower the levels of KDM4B protein in the HCC1954 breast cancer cell line (FIG. 24). […] The expression KDM4B was knocked down for four days, and then the cells were treated with either doxorubicin, etoposide (a non-anthracycline TOP2 inhibitor) or paclitaxel (a taxane commonly used to treat breast cancer that functions via tubulin inhibition) for three days, after which cell viability was measured (FIG. 25). All experiments were normalized to DMSO vehicle-only controls and were performed under both induced and non-induced conditions.
The test system is the same in experiment [2]. Put plainly: Cell viability after drug treatment of HCC1954 cells with inducible shRNA knockdown of KAT6B. Format: cell-based. Particulars: three inducible shRNA constructs against KAT6B in HCC1954; FIG. 31.
Procedure: A similar experiment was performed by knocking down KAT6B expression to evaluate the role of KAT6B expression in anthracycline sensitivity. Three inducible shRNA knockdown constructs were used to lower the levels of KAT6B protein in the HCC1954 breast cancer cell line.
The test system is the same in experiment [3]. The note with it: unmodified HCC1954, ER-/HER2+, not TOP2A amplified; cited from earlier work.

Consider `COc1cccc2c1C(=O)c1c(O)c3c(c(O)c1C2=O)C[C@@](O)(C(=O)CO)C[C@@H]3O[C@H]1C[C@H](N)[C@H](O)[C@H](C)O1` [doxorubicin], for which, in experiment [1], the “change in drug sensitivity (cell viability) upon knockdown of KDM4B” value (from here on “change in drug sensitivity … of KDM4B”) is listed as “induced resistance”. In addition, the “change in drug sensitivity (cell viability) upon knockdown of KAT6B” value (from here on “change in drug sensitivity … of KAT6B”) in experiment [2] is “induced resistance”. For the same molecule, the “doxorubicin sensitivity of the HCC1954 cell line” value in experiment [3] is listed as “doxorubicin-sensitive”.
In the case of `CC(=O)O[C@H]1C(=O)[C@@]2(C)[C@H]([C@H](OC(=O)c3ccccc3)[C@]3(O)C[C@H](OC(=O)[C@H](O)[C@@H](NC(=O)c4ccccc4)c4ccccc4)C(C)=C1C3(C)C)[C@]1(OC(C)=O)CO[C@@H]1C[C@@H]2O` [paclitaxel], the “change in drug sensitivity … of KDM4B” value in experiment [1] is “remained sensitive”. Also, the “change in drug sensitivity … of KAT6B” value in experiment [2] is “remained sensitive”.
For the molecule `COc1cc([C@@H]2c3cc4c(cc3[C@@H](O[C@@H]3O[C@@H]5CO[C@@H](C)O[C@H]5[C@H](O)[C@H]3O)[C@H]3COC(=O)[C@H]23)OCO4)cc(OC)c1O` [etoposide], the “change in drug sensitivity … of KDM4B” value in experiment [1] is given as “induced resistance”. In addition, the “change in drug sensitivity … of KAT6B” value in experiment [2] is on record as “induced resistance”.
